The target in the experiment is human galectin 3 (Homo sapiens, UniProt P17931). As to the kind of experiment: SPR analysis of binding of glycan ligands to immobilized human Gal-3. The conditions noted are these: for Relative affinity: calculated relative to the free lactose.

Bounds are passed on as bounds.

Sequence of human galectin 3 (P17931 whole entry): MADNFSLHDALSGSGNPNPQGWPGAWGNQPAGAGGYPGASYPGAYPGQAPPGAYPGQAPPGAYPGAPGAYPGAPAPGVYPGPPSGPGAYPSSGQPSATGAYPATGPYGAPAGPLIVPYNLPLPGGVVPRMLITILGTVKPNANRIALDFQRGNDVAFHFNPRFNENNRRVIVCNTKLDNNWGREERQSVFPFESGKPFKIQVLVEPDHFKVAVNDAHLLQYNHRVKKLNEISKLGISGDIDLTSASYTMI

Take `[N-]=[N+]=NCCOCCOCCO[C@@H]1O[C@H](CO)[C@@H](O[C@@H]2O[C@H](CO)[C@H](O)[C@H](O)[C@H]2O)[C@H](O)[C@H]1O` [mono Lac (3)]: the Relative affinity is reported as less than 1.47.

Take `CC(=O)N[C@H]1[C@@H](OCCOCCOCCN=[N+]=[N-])O[C@H](CO)[C@H](O)[C@@H]1O[C@@H]1O[C@H](CO)[C@H](O)[C@H](O)[C@H]1O` [mono TFD (2), 2-(2-(2-Azido)ethoxy)ethyl-2-actamido-2-desoxy-3-O-[-β-D-galactopyranosyl]-α-D-galactopyranoside]: the Relative affinity was less than 1.47.

For `CC(=O)N[C@H]1[C@@H](OCCOCCOCCN=[N+]=[N-])O[C@H](CO)[C@H](O)[C@@H]1O` [mono Tn (1), 2-(2-(2-Azido)ethoxy)ethyl-2-actamido-2-desoxy-α-D-gal-actopyranoside], the Relative affinity is listed as less than 1.47.

In the case of β-Cyclodextrin-GalNAc [CD-Tn (16)], the Relative affinity is 1070. Under “SPR, Gal-3 immobilized on CM5 chip, ligand as analyte, 25 °C”, this compound came in with a half-maximal effective concentration (EC50) of 1370 ± 390 nM. For the same compound, the “enhanced relative affinity (per glycan ligand) in comparison with free lactose” value (SPR, per glycan ligand) is reported as 153 fold. The “Relative affinity per unit” value (calculated for each sugar unit on cyclodextrin, relative to free lactose) is 153.

One may read the EC50 as the concentration at which the effect is half-maximal. Higher therefore signals lower potency in that assay.
